Data set [1] concerns M. tuberculosis H37Rv-GFP inside Raw264.7 macrophages.
The subject of data set [2] is M. tuberculosis H37Rv. The data set is described as follows: Bacteria killing activity by CFU counting, aerobic incubation. It counts as cell-based, Mycobacterium tuberculosis. As to the method:
FIG. 8 illustrates the colony forming units (CFUs) recovered from macrophages at different time points after infection with M. tuberculosis H37Rv. Cells were infected and treated with the indicated amount of pyridopyrimidione compound 71 (4 to 20 μM);
The bacteria killing activity of compound 71 was determined using the CFU counting method. Two-fold serial dilutions of compound 71 were incubated aerobically with H37Rv for 21 days at 37° C.

The subject of data set [3] is M. tuberculosis H37Rv in mouse macrophages. Briefly: CFU determination in infected mouse macrophages. The conditions noted are these: mouse cells, seven days after infection. It counts as cell-based, Mycobacterium tuberculosis.
Data set [4] concerns M. tuberculosis H37Rv in human macrophages. Type of data set: cell-based, Mycobacterium tuberculosis.
For data set [5], the system named is M. tuberculosis in primary macrophages. Type of data set: cell-based, Mycobacterium tuberculosis.
The next data set concerns BJ- Skin. The data set is described as follows: Cytotoxicity assay (resazurin, 5 days). Type of data set: cell-based. As to the method: (§1) In order to address compound toxicity, seven cell lines originating from different body tissues were cultivated in the presence of 3-fold dilutions of compounds starting from 100 μM. After 5 days of culture, cell viability was assessed by the resazurin test. Briefly, cells were incubated with 10 μg/mL of resazurin (Sigma-Aldrich St. Louis, Mo.) for 4 h at 37° C. under 5% CO2. Resofurin fluorescence (RFU) was measured as indicated above. Percentage of toxicity on cells was calculated as follows: Cytotoxicity (%)=(RFUDMSO−RFUBlank)−(RFUcompound−RFUblank)/(RFUDMSO−RFUBlank)×100. Percentage of cytotoxicity was plotted against compound concentration and the minimal toxic concentration (MTC50) was determined by non-linear regression analysis as the lowest compound concentration where fifty percent toxicity was observed on the corresponding cell line.
(§2) To address the issue of toxicity, compound 133 was tested on a panel of seven cell lines derived from different body tissue. Cells were incubated with increasing amounts of compound and cell viability was assessed with resazurin after 5 days of co-incubation. Percentage of cytotoxicity was determined by taking as a reference the resofurin fluorescence measured by DMSO containing wells. The concentration where fifty percent of the cells died was defined as the Minimal Toxic Concentration (MTC50).

The test system of a further data set is HEK293- Kidney. The data set is described as follows: Cytotoxicity assay (resazurin, 5 days). To be noted: HEK293, 5 days. Type of data set: cell-based. As to the method: as §1, §2
For another data set, the system named is HepG2-Hepatocytes. The data set is described as follows: Cytotoxicity assay (resazurin, 5 days). It counts as cell-based. The conditions noted are these: HepG2, 5 days. On the procedure:
as §1, §2

The subject of a further data set is Jurkat -T-cell. Briefly: Cytotoxicity assay (resazurin, 5 days). Type of data set: cell-based. As to the method:
as §1, §2

Another data set deals with MRC5- Lung. Briefly: Cytotoxicity assay (resazurin, 5 days). It counts as cell-based. To be noted: MRC5, 5 days. On the procedure:
as §1, §2

Another data set has as its system SK-N-SH -Brain. Briefly: Cytotoxicity assay (resazurin, 5 days). It counts as cell-based. On the procedure: as §1, §2
The next data set deals with THP-1 - Monocytes. The data set is described as follows: Cytotoxicity assay (resazurin, 5 days). To be noted: THP-1, 5 days. Type of data set: cell-based. On the procedure: as §1, §2
In data set [6] the test system is seven cell lines derived from different body tissue. The data set is described as follows: Cytotoxicity assay on a panel of seven cell lines. Type of data set: cell-based. The conditions noted are these: all tested cell lines, 5 days of co-incubation. As to the method: as §1, §2
In data set [7] the test system is M. tuberculosis clinical isolates. It counts as cell-based, Mycobacterium tuberculosis.
The test system of data set [8] is M. tuberculosis H37Rv. The data set is described as follows: MIC on laboratory strain, in vitro bacterial growth assay. It counts as cell-based. The conditions noted are these: Mycobacterium tuberculosis.
In a further data set the test system is M. tuberculosis H37Ra. The description is as above. Type of data set: cell-based. To be noted: Mycobacterium tuberculosis.
For a further data set, the system named is BCG Pasteur-Tokyo. The data set is described as follows: microbe, parasite or virus in culture. Type of data set: cell-based. To be noted: Mycobacterium tuberculosis variant bovis BCG.
The next data set deals with M. smegmatis mc^2 155. The data set is described as follows: MIC on fast growing mycobacteria. It counts as cell-based, Mycobacterium smegmatis.
Data set [9] concerns Acinetobacter baumannii, Escherichia coli, Enterobacter cloacae, E. aerogenes, Klebsiella oxytoca, Pseudomonas aeruginosa, Salmonella enteridis, Vibrio mimicus. Briefly: Antimicrobial spectrum on clinical isolates, Gram-negative. Type of data set: cell-based, Gram-negative bacteria.
Data set [10] deals with Staphylococcus aureus, S. epidermis, S. capitis, S. xylosus, Micrococcus luteus, Listeria innocua, Lactobacillus gallinarum, group G Streptococcus …. Briefly: Antimicrobial spectrum on clinical isolates, Gram-positive. It counts as cell-based, Gram-positive bacteria.
In a further data set the test system is C. striatum, C. jeikeium. Briefly: Antimicrobial spectrum on clinical isolates, Corynebacterium. Type of data set: cell-based.
Data set [11] concerns Candida albicans, C. glabrata, C. parapsilosis. The data set is described as follows: Antimicrobial spectrum on clinical isolates, Fungi. Type of data set: cell-based.
Data set [12] has as its system M. tuberculosis H37Rv-GFP. The data set is described as follows: in vitro. The conditions noted are these: Mycobacterium tuberculosis.
Data set [13] concerns M. tuberculosis H37Rv-GFP inside Raw264.7 macrophages. The data set is described as follows: in vitro. To be noted: mouse.
For a further data set, the system named is Primary BMDM. The data set is described as follows: Cytotoxicity assay (resazurin, 5 days).
Data set [14] relates to Primary human macrophages. The data set is described as follows: Cytotoxicity assay (resazurin, 5 days).
Data set [15] deals with M. tuberculosis H37Rv-GFP. The data set is described as follows: microbe, parasite or virus in culture. To be noted: Mycobacterium tuberculosis, read-out: minimal inhibitory concentration (MIC).
Data set [16] deals with M. tuberculosis H37Rv-GFP inside Raw264.7 macrophages. The data set is described as follows: microbe, parasite or virus in culture. To be noted: Mycobacterium tuberculosis, 120 h, read-out: minimal inhibitory concentration (MIC).

The values that follow come from patent publication US20130012506A1 (priority 2010, published 2013).

≈ marks a conversion by molar mass, not a printed value. Where two headings read alike, the source gives them in different places. A value given as a limit tells only on which side of the number the result lay.

`CO[C@H]1/C=C/O[C@@]2(C)Oc3c(C)c(O)c4c(O)c(c(/C=N/N5CCN(C)CC5)c(O)c4c3C2=O)NC(=O)/C(C)=C\C=C\[C@H](C)[C@H](O)[C@@H](C)[C@@H](O)[C@@H](C)[C@H](OC(C)=O)[C@@H]1C` [rifampin]: in [1], the “Calculated MICs from the image based quantification of the infection ratio” value is 2.4 ± 1.3 µg/mL and the “cells that appear to be infected” value was 10%.

In the case of `CNC(=O)c1c(Nc2ccc(F)c(Cl)c2)nc2c(OC)cccn2c1=O`, the melting point was 218 °C (dec.).

In the case of `COC(=O)c1ccc(Nc2nc3c(OC)cccn3c(=O)c2CO)nc1`, the melting point was 231 to 232 °C (dec.).

As for `COc1cccn2c(=O)c(CO)c(Nc3ccc4ncccc4c3)nc12` [compound 71, 3-(Hydroxymethyl)-9-methoxy-2-(quinolin-6-ylamino)-4H-pyrido[1,2-a]pyrimidin-4-one], the “growth of M. tuberculosis (CFU)” value in the data set with M. tuberculosis H37Rv [2] (0.04 to 20 μM, H37Rv, 21 days at 37° C.) is “strongly inhibited the growth of M. tuberculosis”. In the data set with M. tuberculosis H37Rv [2] (after 2 days of incubation), the “bacteria killing activity (CFU)” value is “fast bacteria killing activity even at the lowest concentration”.

With `Cc1cccn2c(=O)c(CO)c(Nc3cccc(Cl)c3)nc12` [compound 232, 2-(3-Chlorophenylamino)-3-(hydroxymethyl)-9-methyl-4H-pyrido[1,2-a]pyrimidin-4-one], the “decrease in the number of CFUs” value in [3] and in data set [4] was “ten-fold decrease in the number of CFUs” each time. Further, the “bacterial load and host cell abundance” value in data set [5] was “harbored fewer bacteria compared to DMSO control and were more abundant”.

In the case of `Cc1cccn2c(=O)c(C=O)c(Nc3cccc(Cl)c3)nc12` [compound 133, 2-(3-Chlorophenylamino)-9-methyl-4-oxo-4H-pyrido[1,2-a]pyrimidine-3-carbaldehyde], the “Range of MTC50” value in the data set on BJ- Skin, in the data set with HEK293- Kidney, in the data set with HepG2-Hepatocytes, in the data set with Jurkat -T-cell, in the data set on MRC5- Lung and in the data set on SK-N-SH -Brain was greater than 100 µM each time. The “Range of MTC50” value (in the data set on THP-1 - Monocytes; in the data set with Primary BMDM; in data set [14]) was greater than 100 µM in each case. Further, the “cytotoxicity (Minimal Toxic Concentration, MTC50)” value in [6] was greater than 100 µM. Moreover, the “Range of MICs for multiple strains (μM)” value was 2.5-5^ μM in data set [7] (Drug Sensitive, Tissue, 2 isolates) and 0.3-5^ μM in data set [7] (XDR, Tissue, 5 isolates). The “Range of MICs for multiple strains” value in [7] (INH^R RIF^R Strep^R, Sputum, 3 isolates) is 0.3 to 1.2 µM; in data set [7] (INH^R RIF^R Strep^R, Tissue, 1 isolate), 1.2 µM; in [7] (MDR, Sputum, 3 isolates) it was 0.3 to 1.2 µM; in data set [7] (MDR, Tissue, 1 isolate) it was 1.2 µM; in data set [7] (RIF^R, Sputum, 1 isolate), 2.5 µM; in data set [7] (RIF^R, Tissue, 1 isolate) it was 1.2 µM. The “Range of MICs for multiple strains” value in [7] (XDR, Sputum, 4 isolates) was in the range of 0.6 to 2.5 µM. For the same compound, the MIC against M. tuberculosis H37Rv [8] is 2 µM (≈ 0.627 µg/mL); against M. tuberculosis H37Ra, 2 µM (≈ 0.627 µg/mL); in the data set on BCG Pasteur-Tokyo, 2 µM (≈ 0.627 µg/mL); against M. smegmatis mc^2 155, “no effect”; in the data set on M. smegmatis mc^2 155 (Mycolicibacterium smegmatis, MC^2155, read-out: MIC), greater than 100 µM. The “Antibacterial activity & Specificity” value in [9] was “NE (NE: No effect up to 100 μg/mL equivalent to 320 μM)”; in [10], “NE (NE: No effect up to 100 μg/mL equivalent to 320 μM)”; with C. striatum, C. jeikeium, “NE (NE: No effect up to 100 μg/mL equivalent to 320 μM)”; in data set [11], “NE (NE: No effect up to 100 μg/mL equivalent to 320 μM)”. For the same compound, the “decrease in the number of CFUs” value in data set [3] and in data set [4] was “ten-fold decrease in the number of CFUs” in each case. Moreover, the selectivity ratio in data set [12] and in [13] was greater than 50 throughout.

`COc1cccn2c(=O)c(CO)c(Nc3ccc(F)c(F)c3)nc12`: the melting point is 231 °C (dec.).

`COc1cccn2c(=O)c(Br)c(Nc3ccc4ncccc4c3)nc12` had a melting point of 248 to 249 °C.

As to `Cn1cnc2ccc(Nc3nc4c(F)cccn4c(=O)c3CO)cc21`, the melting point was 209 °C (dec.).

`NNC(=O)c1ccncc1` [INH, isoniazid]: in data set [1], the “Calculated MICs from the image based quantification of the infection ratio” value is 0.16 ± 0.05 µg/mL and the “cells that appear to be infected” value came to 10%. In data set [15], the MIC came out at 0.1 µg/mL (≈ 0.729 µM). Also, in data set [16], the MIC is 0.1 µg/mL (≈ 0.729 µM).
